According to ChEMBL document CHEMBL3407401, “Development of certain novel N-(2-(2-(2-oxoindolin-3-ylidene)hydrazinecarbonyl)phenyl)-benzamides and 3-(2-oxoindolin-3-ylideneamino)-2-substituted quinazolin-4(3H)-ones as CFM-1 analogs: design, synthesis, QSAR analysis and anticancer activity” (Eur J Med Chem, 2015):
Converted amounts (≈) assume the structure as drawn.

Assays:
MDA-MB-231 [1] = experiment: Cytotoxicity against human MDA-MB-231 cells assessed as inhibition of cell survival at 25 ug/ml after 24 hrs by MTT assay; format: functional; conditions: MDA-MB-231, 24 h
HeLa [2] = experiment: Cytotoxicity against human HeLa cells assessed as inhibition of cell survival at 25 ug/ml after 24 hrs by MTT assay; format: functional
[3] = Cytotoxicity against human HuH7 cells assessed as inhibition of cell survival after 24 hrs by MTT assay; format: functional, cell-based; conditions: Huh-7, 24 h
[4] = Cytotoxicity against human HuH7 cells assessed as inhibition of cell survival at 25 ug/ml after 24 hrs by MTT assay; format: functional; conditions: Huh-7, 24 h
Daoy [5] = experiment: Cytotoxicity against human DaOY cells assessed as inhibition of cell survival at 25 ug/ml after 24 hrs by MTT assay; format: functional
Daoy [6] = experiment: Cytotoxicity against human DaOY cells assessed as inhibition of cell survival after 24 hrs by MTT assay; format: functional, cell-based
[7] = Cytotoxicity against human UW228-2 cells assessed as inhibition of cell survival at 25 ug/ml after 24 hrs by MTT assay; format: functional; conditions: UW228-2, 24 h
[8] = Cytotoxicity against human UW228-2 cells assessed as inhibition of cell survival after 24 hrs by MTT assay; format: functional, cell-based; conditions: UW228-2, 24 h
MDA-MB-231 [9] = experiment: Cytotoxicity against human MDA-MB-231 cells assessed as inhibition of cell survival after 24 hrs by MTT assay; format: functional, cell-based; conditions: MDA-MB-231, 24 h
HeLa [10] = experiment: Cytotoxicity against human HeLa cells assessed as inhibition of cell survival after 24 hrs by MTT assay; format: functional, cell-based

SMILES | inhibition at 25 µg/mL (MDA-MB-231 [1]) [%] | inhibition at 25 µg/mL (HeLa [2]) [%] | IC50 [3] [µg/mL] | inhibition at 25 µg/mL [4] [%] | inhibition at 25 µg/mL (Daoy [5]) [%] | IC50 (Daoy [6]) [µg/mL] | inhibition at 25 µg/mL [7] [%] | IC50 [8] [µg/mL] | IC50 (MDA-MB-231 [9]) [µg/mL] | IC50 (HeLa [10]) [µg/mL]
Cc1ccc(C(=O)Nc2ccccc2C(=O)N/N=C2\C(=O)Nc3ccccc32)cc1 | 46.8 | 30.4 | 5 (≈ 12.5 µM) | 56.4 | 72.8 | 3.94 (≈ 9.89 µM) | 71.7 | 6.06 (≈ 15.2 µM) |  | 
Cc1ccc(C(=O)Nc2ccccc2C(=O)N/N=C2\C(=O)Nc3ccc(Cl)cc32)cc1 | 85 | 86.7 | 3.2 (≈ 7.39 µM) | 84.1 | 77.1 | 1.86 (≈ 4.3 µM) | 88.7 | 6.87 (≈ 15.9 µM) | 5.95 (≈ 13.7 µM) | 6.52 (≈ 15.1 µM)
Cc1ccc(C(=O)Nc2ccccc2C(=O)N/N=C2\C(=O)Nc3ccc(C)cc32)cc1 | 37.7 | 46.5 |  | 38 | 49.1 |  | 23.2 |  |  | 
COc1ccc2c(c1)/C(=N/NC(=O)c1ccccc1NC(=O)c1ccc(C)cc1)C(=O)N2 | 59.4 | 80.3 | 4.6 (≈ 10.7 µM) | 81.6 | 77.2 | 4.42 (≈ 10.3 µM) | 84.8 | 5.82 (≈ 13.6 µM) | 10.9 (≈ 25.4 µM) | 8.09 (≈ 18.9 µM)
Cc1ccc(C(=O)Nc2ccccc2C(=O)N/N=C2\C(=O)Nc3ccc([N+](=O)[O-])cc32)cc1 | 30.2 | 26.8 | 11.6 (≈ 26.2 µM) | 55.2 | 75.8 | 6.61 (≈ 14.9 µM) | 38.5 |  |  | 
O=C1Nc2ccccc2/C1=N/NC(=O)c1ccccc1NC(=O)c1ccc([N+](=O)[O-])cc1 | 44.9 | 55 |  | 48.6 | 79.1 | 2.72 (≈ 6.33 µM) | 51.8 | 20 (≈ 46.6 µM) |  | 16.5 (≈ 38.5 µM)
O=C1Nc2ccc(Cl)cc2/C1=N/NC(=O)c1ccccc1NC(=O)c1ccc([N+](=O)[O-])cc1 | 35.5 | 31 |  | 43.1 | 36.6 |  | 41.6 |  |  | 
Cc1ccc2c(c1)/C(=N/NC(=O)c1ccccc1NC(=O)c1ccc([N+](=O)[O-])cc1)C(=O)N2 | 40.8 | 46.1 | 19.3 (≈ 43.5 µM) | 55.8 | 62.7 | 11.9 (≈ 26.7 µM) | 58.7 | 9.62 (≈ 21.7 µM) |  | 
COc1ccc2c(c1)/C(=N/NC(=O)c1ccccc1NC(=O)c1ccc([N+](=O)[O-])cc1)C(=O)N2 | 34.8 | 16.3 |  | 33.2 | 11.1 |  | 24.5 |  |  | 
O=C1Nc2ccc([N+](=O)[O-])cc2/C1=N/NC(=O)c1ccccc1NC(=O)c1ccc([N+](=O)[O-])cc1 | 0 | 14.7 |  | 8.2 | 31.9 |  | 4.8 |  |  | 
Cc1ccc(-c2nc3ccccc3c(=O)n2/N=C2\C(=O)Nc3ccccc32)cc1 | 24.7 | 42.3 |  | 2.9 | 41.4 |  | 9.3 |  |  | 
Cc1ccc(-c2nc3ccccc3c(=O)n2/N=C2\C(=O)Nc3ccc(Cl)cc32)cc1 | 78.1 | 80.8 | 3.76 (≈ 9.06 µM) | 83.3 | 75.4 | 1.46 (≈ 3.52 µM) | 88 | 5.7 (≈ 13.7 µM) | 4.8 (≈ 11.6 µM) | 8.6 (≈ 20.7 µM)
Cc1ccc(-c2nc3ccccc3c(=O)n2/N=C2\C(=O)Nc3ccc(C)cc32)cc1 | 34.3 | 42.8 |  | 7.2 | 47 |  | 2.1 |  |  | 
COc1ccc2c(c1)/C(=N/n1c(-c3ccc(C)cc3)nc3ccccc3c1=O)C(=O)N2 | 35.4 | 68 | 22.8 (≈ 55.6 µM) | 53.6 | 82.8 | 3.61 (≈ 8.8 µM) | 58.9 | 20.8 (≈ 50.7 µM) |  | 9.89 (≈ 24.1 µM)
Cc1ccc(-c2nc3ccccc3c(=O)n2/N=C2\C(=O)Nc3ccc([N+](=O)[O-])cc32)cc1 | 23.6 | 52.9 |  | 0 | 58.8 | 11.7 (≈ 27.4 µM) | 22.8 |  |  | 21.1 (≈ 49.7 µM)
O=C1Nc2ccccc2/C1=N/n1c(-c2cccs2)nc2ccccc2c1=O | 10.7 | 36.2 |  | 0 | 69.7 | 5.4 (≈ 14.5 µM) | 0 |  |  | 
O=C1Nc2ccc(Cl)cc2/C1=N/n1c(-c2cccs2)nc2ccccc2c1=O | 6.1 | 69.7 |  | 0 | 69.3 | 15.7 (≈ 38.5 µM) | 28.4 |  |  | 17 (≈ 41.7 µM)
Cc1ccc2c(c1)/C(=N/n1c(-c3cccs3)nc3ccccc3c1=O)C(=O)N2 | 29.5 | 57.8 |  | 32.9 | 59.4 | 19 (≈ 49.1 µM) | 32.1 |  |  | 19.3 (≈ 49.9 µM)
COc1ccc2c(c1)/C(=N/n1c(-c3cccs3)nc3ccccc3c1=O)C(=O)N2 | 13.6 | 67 | 19.9 (≈ 49.5 µM) | 62.7 | 80.5 | 3.25 (≈ 8.08 µM) | 56.4 | 21.4 (≈ 53.2 µM) |  | 11 (≈ 27.3 µM)
O=C1Nc2ccc([N+](=O)[O-])cc2/C1=N/n1c(-c2cccs2)nc2ccccc2c1=O | 0 | 0 |  | 0 | 18.4 |  | 0 |  |  | 
Cc1cc(Br)cc2c1NC(=O)/C2=C1\SC(=S)NC1=O | 52.5 | 57.6 | 8.18 (≈ 23 µM) | 61.8 | 64.8 | 8.12 (≈ 22.9 µM) | 51.4 | 16.4 (≈ 46.2 µM) | 19.7 (≈ 55.5 µM) | 13.5 (≈ 38 µM)
